{"source": "patent US7361758B2", "about": "“Crystals of triazaspiro[5.5]undecane derivative” (Ono Pharmaceutical Co., Ltd., priority 2002, dated 2008)", "key": {"[1]": {"target": "interaction between chemokine and a chemokine receptor (Homo sapiens, UniProt P51681)", "sequence (P51681 whole entry)": "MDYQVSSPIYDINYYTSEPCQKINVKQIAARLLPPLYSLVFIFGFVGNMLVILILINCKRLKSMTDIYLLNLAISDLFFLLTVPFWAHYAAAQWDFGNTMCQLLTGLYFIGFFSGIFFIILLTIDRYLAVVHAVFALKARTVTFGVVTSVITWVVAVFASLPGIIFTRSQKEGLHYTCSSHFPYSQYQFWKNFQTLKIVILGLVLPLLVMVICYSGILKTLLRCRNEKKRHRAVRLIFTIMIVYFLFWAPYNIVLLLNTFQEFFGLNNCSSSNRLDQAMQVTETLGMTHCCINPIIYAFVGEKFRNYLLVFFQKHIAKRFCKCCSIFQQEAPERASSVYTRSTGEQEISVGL", "assay": "antagonistic activity against the interaction between chemokine and a chemokine receptor (method described in WO 01/40227)", "type": "biochemical", "conditions": "compared with the amorphous substance produced by the method of WO 02/074770"}, "[2]": {"test_system": "rats", "conditions": "rat, in vivo, 2000 mg/kg", "description": "Thus, the inventive compound is determined as sufficiently safe for medical use."}}}
{"smiles": "CCCCN1C(=O)[C@@H]([C@H](O)C2CCCCC2)NC(=O)C12CCN(Cc1ccc(Oc3ccc(C(=O)O)cc3)cc1)CC2.Cl", "note": "[Crystal A, (3R)-1-butyl-2,5-dioxo-3-[(1R)-1-hydroxy-1-cyclohexylmethyl]-9-[4-(4-carboxyphenyloxy)phenylmethyl]-1,4,9-triazaspiro[5.5]undecane Hydrochloride]", "values": [{"measurement": "antagonistic activity against the interaction between chemokine and a chemokine receptor", "setting": "[1]", "value": "almost the same level as that of the amorphous substance"}, {"measurement": "toxicity", "setting": "[2]", "value": "never showed distinct toxicity"}]}
